Measured values as given in patent US20040037735A1, “Allograft tissue purification process for cleaning bone” (priority 2002, published 2004).
Like-named read-outs stand apart in the source and are kept apart here.

Columns and labels:
[1] = test system: Pseudomonas aeruginosa; assay: Bacteriological sterility: log reduction on cortical bone samples; assay type: cell-based; details: single process step; for Microbiological Log Reductions T2: full cycle time; for Microbiological Log Reductions T1: one quarter cycle time
Procedure: (§1) Bacteriological Sterility: Cortical bone samples were subjected to the previous steps of the process. […] The samples were assayed for bacteria activity, using standard assays.

[2] = test system: Staphylococcus aureus; assay: as above; assay type: cell-based; details: single process step; for Microbiological Log Reductions T2: full cycle time; for Microbiological Log Reductions T1: one quarter cycle time
Procedure: as §1

[3] = test system: Escherichia coli; assay: as above; assay type: cell-based; details: single process step; for Microbiological Log Reductions T2: full cycle time; for Microbiological Log Reductions T1: one quarter cycle time
Procedure: as §1

[4] = test system: Candida albicans; assay: as above; assay type: cell-based; details: single process step; for Microbiological Log Reductions T2: full cycle time; for Microbiological Log Reductions T1: one quarter cycle time
Procedure: as §1

[5] = test system: Bacillus subtilis (vegetative); assay: as above; assay type: cell-based; details: single process step; for Microbiological Log Reductions T2: full cycle time; for Microbiological Log Reductions T1: one quarter cycle time
Procedure: as §1

[6] = test system: Staphylococcus epidermidis; assay: as above; assay type: cell-based; details: single process step; for Microbiological Log Reductions T2: full cycle time; for Microbiological Log Reductions T1: one quarter cycle time
Procedure: as §1

[7] = 32% DBM in hyaluronan carrier, histology after 28 days
Procedure: Osteoinductivity: Cortical bone from three donors ([…], […], […]) was processed using a control process, 0 hour H2O2 with no sonication, a treatment process with 1 hour, 3 hours, and 5 hours of H2O2 treatment, and a negative control. After processing, the bone was ground, demineralized, and prepared into 32% Demineralized Bone Matrix in a hyaluronan carrier. Samples (15 mg) were implanted bilaterally into the hamstring muscle in an athymic mouse model, approved by the University of Medicine and Dentistry of New Jersey animal care and use committee. Implants were evaluated histologically after 28 days.

For `OO` [H2O2, hydrogen peroxide], the “Microbiological Log Reductions T2” value [1] was >5.09 Log, the “Microbiological Log Reductions T1” value [1] was >5.09 Log and the “Microbiological Log Reductions T2” value [2] was >5.93 Log. The “Microbiological Log Reductions T1” value [2] was >5.93 Log, the “Microbiological Log Reductions T2” value [3] was >5.19 Log and the “Microbiological Log Reductions T1” value [3] was >5.19 Log. The “Microbiological Log Reductions T2” value [4] was >5.10 Log, the “Microbiological Log Reductions T1” value [4] was >5.47 Log and the “Microbiological Log Reductions T2” value [5] was >5.25 Log. For the same compound, the “Microbiological Log Reductions T1” value [5] was >5.25 Log, the “Microbiological Log Reductions T2” value [6] was >5.21 Log and the “Microbiological Log Reductions T1” value [6] was >5.21 Log. For the same compound, the “mean (SD) osteoinductivity score” value ([7]; 1 hour H2O2 treatment of bone) was 3.04 (0.97), the “mean (SD) osteoinductivity score” value ([7]; 3 hours H2O2 treatment of bone) was 2.57 (1.36) and the “mean (SD) osteoinductivity score” value ([7]; 5 hours H2O2 treatment of bone) was 1.47 (1.10).

In the case of Triton X-100, the “Microbiological Log Reductions T2” value [1] is reported as 3.40 Log, the “Microbiological Log Reductions T1” value [1] is reported as 2.48 Log and the “Microbiological Log Reductions T2” value [2] is reported as 0.20 Log. For the same compound, the “Microbiological Log Reductions T1” value [2] was −0.59 Log, the “Microbiological Log Reductions T2” value [3] was 1.82 Log and the “Microbiological Log Reductions T1” value [3] was 0.03 Log. For the same compound, the “Microbiological Log Reductions T2” value [4] was 1.58 Log, the “Microbiological Log Reductions T1” value [4] was 1.78 Log and the “Microbiological Log Reductions T2” value [5] was 2.41 Log. The “Microbiological Log Reductions T1” value [5] was 2.56 Log, the “Microbiological Log Reductions T2” value [6] was 0.41 Log and the “Microbiological Log Reductions T1” value [6] was 0.56 Log.
